Source: patent US20100204140A1, “USE OF A PEPTIDE AS A THERAPEUTIC AGENT” (priority 2007, published 2010)

Columns and labels:
[1] = system: Streptococcus pneumoniae; assay type: cell-based; settings: 5 micrograms per ml
[2] = system: Primary Human endothelial cells (HUVEC); assay: Endothelial cell migration assay; assay type: cell-based; settings: test peptide 10 micrograms per ml, 22 hours
[3] = in vitro; settings: human, CEM-SS cells
[4] = system: Human Peripheral Blood Mononuclear Cells (PBMC), B cell proliferation; assay: B cell proliferation assay (SAC plus IL-2, 3H-thymidine); assay type: cell-based; settings: test peptide 10 micrograms per ml, 3 days plus 12 hours 3H-thymidine
[5] = system: HUVEC; assay: Endothelial tube formation assay; assay type: cell-based, human; settings: test peptide 10 micrograms per ml, 20 hours
Description: Positive control was vehicle only.

[6] = in vitro; settings: human, MRC-5 cells (human embryonal lung fibroblasts)
[7] = system: hepatitis B virus (HBV) ayw strain in HepG2-2.2.15 cells; assay: HBV replication assay (secreted HBV DNA, TaqMan PCR); assay type: cell-based; settings: test peptide 10 micrograms per ml; six days; HBV DNA in supernatant
Procedure: HepG2-2.2.15 is a stable cell line containing the hepatitis B virus (HBV) ayw strain genome (ATCC Cat. No. CRL-11997). Antiviral compounds blocking any late step of viral replication such as transcription, translation, pregenome encapsidation, reverse transcription, particle assembly and release can be identified and characterized using this cell line.
HepG2-2.2.15 cells were plated in 96-well microtiter plates. After 16-24 hours the confluent monolayer of HepG2-2.2.15 cells was washed and the medium was replaced with complete medium containing test peptide—10 micrograms per ml—in duplicate. […] Three days later the culture medium was replaced with fresh medium containing the peptide. Six days following the initial administration of the peptide, the cell culture supernatants was collected, treated with pronase and DNAse and then used in a real-time quantitative TaqMan PCR assay. The PCR-amplified HBV DNA was detected in real-time by monitoring increases in fluorescence signals that result from the exonucleolytic degradation of a quenched fluorescence probe molecule that hybridizes to the amplified HBV DNA. For each PCR amplification, a standard curve was simultaneously generated using dilutions of purified HBV DNA. Antiviral activity was calculated from the reduction in HBV DNA levels (% virus control). […]

[8] = system: Pseudomonas aeruginosa; assay type: cell-based; settings: 5 micrograms per ml
[9] = system: spleen cells of Ovalbumin-immunized Balb/c mice; assay: Th1/Th2 cytokine profiling assay; assay type: cell-based, mouse; settings: test peptide 10 micrograms per ml; Ovalbumin restimulation; 72 hours
[10] = system: HCMV strain AD169 in MRC-5 cells; assay: HCMV plaque reduction assay; settings: HCMV AD169 in MRC-5 cells; peptide 10 micrograms per ml; 7-10 days
[11] = system: MRSA; settings: 5 micrograms per ml
[12] = system: HIV-1IIIB in CEM-SS cells; assay: HIV-1 antiviral assay (CPE reduction, MTS); assay type: cell-based; settings: peptide 10 micrograms per ml, 6 days post-infection
[13] = system: Human Peripheral Blood Mononuclear Cells (PBMC), T cell proliferation; assay: T cell proliferation assay (PHA, 3H-thymidine); assay type: cell-based; settings: test peptide 10 micrograms per ml, 3 days plus 12 hours 3H-thymidine
[14] = Cytotoxicity in HBV assay (dye uptake cell viability); assay type: cell-based; settings: human, HepG2-2.2.15 cells (stable line containing HBV ayw genome), test peptide 10 micrograms per ml, % cell control
[15] = system: TNF alpha production in PBMC-derived macrophages; assay: TNF alpha production assay (LPS-stimulated macrophages, ELISA); assay type: cell-based, human; settings: test peptide 10 micrograms per ml, lipopolysaccharide 200 ng/ml, overnight
Description: Not stimulated macrophages served as negative background control.

[16] = system: Human A549 cells; assay: Propidium iodide cell cycle assay; assay type: cell-based; settings: 24 hours, test peptide 10 micrograms per ml
[17] = system: RAW 264.7 cells; assay: Phagocytosis assay (Fluorescein-labeled Escherichia coli); assay type: cell-based, mouse; settings: test peptide 10 micrograms per ml
[18] = system: MRC-5 cells (human embryonal lung fibroblasts); settings: 6 days
[19] = system: HepG2-2.2.15 cells; assay: Cytotoxicity in HBV assay (dye uptake cell viability); assay type: cell-based; settings: test peptide 10 micrograms per ml, % cell control
[20] = system: CEM-SS cells; assay: Cytotoxicity in HIV-1 assay (MTS cell viability); settings: peptide 10 micrograms per ml

Q: For `CSCC[C@H](NC(=O)[C@H](CC(C)C)NC(=O)CNC(=O)[C@@H](NC(=O)[C@H](Cc1ccccc1)NC(=O)[C@H](Cc1ccccc1)NC(=O)[C@H](CC(=O)O)NC(=O)[C@H](Cc1c[nH]cn1)NC(=O)[C@H](CCSC)NC(=O)[C@@H](N)CC(=O)O)C(C)C)C(N)=O` [Neurokinin B], which “% inhibition” value [1] is on record?
A: 0.0%

Q: And the “% inhibition of migration” value [2]?
A: −2%

Q: And the viability at 10 micrograms per ml [3]?
A: 98.5%

Q: What about the “% of SAC/IL2 induced control” value [4] of the same molecule?
A: 115.1%

Q: And the “% inhibition of tube formation” value [5]?
A: 14%

Q: And the viability at 144 h [6]?
A: 100%

Q: What about the “% inhibition of HBV replication in HEP G2 cells” value [7] of the same molecule?
A: 78.5%

Q: And the “% inhibition” value [8]?
A: 0.0%

Q: And the “IFNγ spleen cells; TH1 response (% of control)” value [9]?
A: 126.8 % of control

Q: And the “IL-2 spleen cells (% of control)” value [9]?
A: 198.0 % of control

Q: And the “IL-4 spleen cells; TH2 response (% of control)” value [9]?
A: 103.5 % of control

Q: What about the “IL-5 spleen cells; TH2 response (% of control)” value [9] of the same molecule?
A: 99.2 % of control

Q: And the “TNF-a spleen cells; TH1 response (% of control)” value [9]?
A: 151.0 % of control

Q: What about the “% plaque reduction” value [10] of the same molecule?
A: 3.2%

Q: What about the “% inhibition” value [11] of the same molecule?
A: 0.0%

Q: What about the “% CPE reduction in HIV-1 infected CEM-SS cells” value [12] of the same molecule?
A: 0.0%

Q: What about the “% of PHA induced control” value [13] of the same molecule?
A: 88.1%

Q: What about the viability at 144 h, 10 micrograms per ml [14] of the same molecule?
A: 96.1%

Q: What about the “% of LPS induction” value [15] of the same molecule?
A: 115.9%

Q: And the “Cell cycle analysis G0/G1” value [16]?
A: 53.0

Q: What about the “Cell cycle analysis G2/M” value [16] of the same molecule?
A: 14.8

Q: And the “Cell cycle analysis S” value [16]?
A: 32.2

Q: What about the “% of control phagocytosis” value [17] of the same molecule?
A: 105.9%

Q: With `Nc1nc(O)c2ncn(COC(CO)CO)c2n1` [Ganciclovir] as the molecule, how does the “% Cell viability” value [18] read?
A: 100%

Q: For `Nc1ccn([C@@H]2CS[C@H](CO)O2)c(=O)n1` [Compound 3TC, reference compound], which “% Cell viability” value [19] is on record?
A: 95.8%

Q: Which “% Cell viability” value [20] does the source give for `Cc1cn([C@H]2C[C@H](N=[N+]=[N-])[C@@H](CO)O2)c(=O)[nH]c1=O` [AZT, reference compound] here?
A: 97%

Q: And the “% CPE reduction in HIV-1 infected CEM-SS cells” value [12]?
A: 99%
